“And” between values parts separate entries of the source, which are not always exact repeats. Identical values can stand only once. Like-named read-outs stand apart in the source and are kept apart here.
Tests used:
Type in all cases: in vivo
[1] = system: Heliothis virescens (tobacco budworm); experiment: Heliothis virescens ovo-larvicide, feeding/contact, eggs on filter paper in Petri dishes; settings: for activity on eggs: egg mortality, 7 days incubation; for AVERAGE DEAD IN % (LARVAE): single compound, 7 days
Text: (§1) The action to be expected E for a given active ingredient combination obeys the so-called COLBY formula and can be calculated as follows (COLBY, S.R. “Calculating synergistic and antagonistic responses of herbicide combination”. Weeds, Vol. 15, pages 20-22; 1967):
(§2) ppm=milligrams of active ingredient (=a.i.) per liter of spray mixture X=% action by active ingredient A) using p ppm of active ingredient Y=% action by active ingredient B) using q ppm of active ingredient.
(§3) According to COLBY, the expected (additive) action of active ingredients A)+B) using p+q ppm of active ingredient is
(§4) If the action actually observed (O) is greater than the expected action (E), then the action of the combination is super-additive, i.e. there is a synergistic effect. In mathematical terms the synergism factor SF corresponds to O/E. In the agricultural practice an SF of ≧1.2 indicates significant improvement over the purely complementary addition of activities (expected activity), while an SF of ≦0.9 in the practical application routine signals a loss of activity compared to the expected activity.
Heliothis Virescens (Tobacco Budworm):
(Ovo-Larvicide, Feeding/Contact)
30-35 fresh eggs (0-24 h old), deposited on filter paper, are placed in Petri dishes on top of a layer of artificial diet and 0.8 ml of diluted test solutions are pipetted onto them. After an incubation period of 7 days, samples are checked for egg and larval mortality. 3 replicates per treatment were evaluated.

[2] = system: Heliothis virescens (tobacco budworm); experiment: Heliothis virescens eggs in 24-well microtiter plate on artificial diet, larval mortality
Text: as §1, §2, §3, §4
Heliothis Virescens (Tobacco Budworm)
Eggs (0-24 h old) are placed in 24-well microtiter plate on artificial diet and treated with test solutions (DMSO) by pipetting. After an incubation period of 4 days, samples are checked for larval mortality.

[3] = system: Spodoptera littoralis (Egyptian cotton leaf worm); experiment: Spodoptera littoralis larvicide L1, feeding/contact, cotton leaf discs; settings: single compound
Text: as §1, §2, §3, §4
Spodoptera Littoralis (Egyptian Cotton Leaf Worm)
(Larvicide L1, Feeding/Contact)
Cotton leaf discs are placed on agar in Petri dishes and sprayed with test solutions in an application chamber. After drying, the leaf discs are infested with 10 L1 larvae. The samples are checked for mortality 5 days after treatment. 3 replicates per treatment were evaluated. (1 PPM=1 mg l^−1)

[4] = system: Tetranychus urticae (two spotted spider mite); experiment: Tetranychus urticae contact/feeding activity on bean plants, adult mortality
Text: as §1, §2, §3, §4
Tetranychus Urticae (Two Spotted Spider Mite)
(Contact/Feeding Activity)
Bean plants are infested with mite populations of mixed ages. 1 day after infestation, plants are treated in a spray chamber with diluted test solutions. 1 and 8 days later, samples are checked for adult mortality. 2 replicates per treatment were evaluated.

emamectin benzoate
activity on eggs [1]: inactive
AVERAGE DEAD IN % (LARVAE) ([1]; 0.0015 ppm AI): 5%
AVERAGE DEAD IN % (LARVAE) ([1]; 0.003 ppm AI): 5%
AVERAGE DEAD IN % (LARVAE) ([1]; 0.006 ppm AI): 10%
AVERAGE DEAD IN % ([2]; single compound at 0.00075 ppm AI): 0%
AVERAGE DEAD IN % ([2]; single compound at 0.0015 ppm AI): 0%
AVERAGE DEAD IN % ([2]; single compound at 0.003 ppm AI): 0%
AVERAGE DEAD IN % ([2]; single compound at 0.006 ppm AI): 0%
AVERAGE DEAD IN % ([2]; single compound at 0.012 ppm AI): 55%
AVERAGE DEAD IN % ([2]; single compound at 0.024 ppm AI): 93%
AVERAGE DEAD IN % AFTER 5 DAYS ([3]; 0.003125 PPM AI): 20%
AVERAGE DEAD IN % AFTER 5 DAYS ([3]; 0.00625 PPM AI): 23%
AVERAGE DEAD IN % AFTER 5 DAYS ([3]; 0.0125 PPM AI): 30% and 27%
AVERAGE DEAD IN % AFTER 8 DAYS ([4]; 0.0125 ppm alone): 5%
AVERAGE DEAD IN % AFTER 8 DAYS ([4]; 0.025 ppm alone): 23%
AVERAGE DEAD IN % AFTER 8 DAYS ([4]; 0.05 ppm alone): 38%
AVERAGE DEAD IN % AFTER 1 DAY ([4]; Emamectin benzoate alone 0.0125 ppm AI): 0%
AVERAGE DEAD IN % AFTER 1 DAY ([4]; Emamectin benzoate alone 0.025 ppm AI): 8%
AVERAGE DEAD IN % AFTER 1 DAY ([4]; Emamectin benzoate alone 0.05 ppm AI): 0%

CNC(=O)c1cc(C#N)cc(C)c1NC(=O)c1cc(Br)nn1-c1ncccc1Cl [Cyantraniliprole, cyantraniliprole]
activity on eggs [1]: inactive
AVERAGE DEAD IN % (LARVAE) ([1]; 0.2 ppm AI): 23%
AVERAGE DEAD IN % (LARVAE) ([1]; 0.4 ppm AI): 70% and 63%
AVERAGE DEAD IN % (LARVAE) ([1]; 0.8 ppm AI): 82% and 72%
pest or weed control at 0.025 ppm ([2]; Heliothis virescens, 96 h, Cyantraniliprole alone 0.025 ppm AI, read-out: AVERAGE DEAD IN %): 0%
pest or weed control at 0.05 ppm ([2]; Heliothis virescens, 96 h, Cyantraniliprole alone 0.05 ppm AI, read-out: AVERAGE DEAD IN %): 0%
pest or weed control at 0.1 ppm ([2]; Heliothis virescens, 96 h, Cyantraniliprole alone 0.1 ppm AI, read-out: AVERAGE DEAD IN %): 45%
pest or weed control at 0.2 ppm ([2]; Heliothis virescens, 96 h, Cyantraniliprole alone 0.2 ppm AI, read-out: AVERAGE DEAD IN %): 78%
pest or weed control at 0.4 ppm ([2]; Heliothis virescens, 96 h, Cyantraniliprole alone 0.4 ppm AI, read-out: AVERAGE DEAD IN %): 90%
pest or weed control at 0.8 ppm ([2]; Heliothis virescens, 96 h, Cyantraniliprole alone 0.8 ppm AI, read-out: AVERAGE DEAD IN %): 100%
pest or weed control at 0.025 ppm ([2]; Heliothis virescens, 96 h, single compound at 0.025 ppm AI, read-out: AVERAGE DEAD IN %): 0%
pest or weed control at 0.05 ppm ([2]; Heliothis virescens, 96 h, single compound at 0.05 ppm AI, read-out: AVERAGE DEAD IN %): 0%
pest or weed control at 0.1 ppm ([2]; Heliothis virescens, 96 h, single compound at 0.1 ppm AI, read-out: AVERAGE DEAD IN %): 45%
pest or weed control at 0.2 ppm ([2]; Heliothis virescens, 96 h, single compound at 0.2 ppm AI, read-out: AVERAGE DEAD IN %): 78%
pest or weed control at 0.4 ppm ([2]; Heliothis virescens, 96 h, single compound at 0.4 ppm AI, read-out: AVERAGE DEAD IN %): 90%
pest or weed control at 0.8 ppm ([2]; Heliothis virescens, 96 h, single compound at 0.8 ppm AI, read-out: AVERAGE DEAD IN %): 100%
AVERAGE DEAD IN % AFTER 5 DAYS ([3]; 0.0125 PPM AI): 23%
AVERAGE DEAD IN % AFTER 5 DAYS ([3]; 0.025 PPM AI): 27% and 30%
AVERAGE DEAD IN % AFTER 5 DAYS ([3]; 0.05 PPM AI): 40% and 50%
AVERAGE DEAD IN % AFTER 8 DAYS ([4]; 100 ppm alone): 35%
AVERAGE DEAD IN % AFTER 8 DAYS ([4]; 200 ppm alone): 25%
AVERAGE DEAD IN % AFTER 1 DAY ([4]; Cyantraniliprole alone 100 ppm AI): 0%
AVERAGE DEAD IN % AFTER 1 DAY ([4]; Cyantraniliprole alone 200 ppm AI): 10%

CCOP(=S)(OCC)Oc1nc(Cl)c(Cl)cc1Cl [Chlorpyriphos, chlorpyrifos]
activity on eggs [1]: inactive
AVERAGE DEAD IN % (LARVAE) ([1]; 50 ppm AI): 0%
AVERAGE DEAD IN % (LARVAE) ([1]; 100 ppm AI): 0%
AVERAGE DEAD IN % (LARVAE) ([1]; 200 ppm AI): 30%
pest or weed control at 25 ppm ([2]; Heliothis virescens, 96 h, single compound at 25 ppm AI, read-out: AVERAGE DEAD IN %): 45%
pest or weed control at 50 ppm ([2]; Heliothis virescens, 96 h, single compound at 50 ppm AI, read-out: AVERAGE DEAD IN %): 90%
pest or weed control at 100 ppm ([2]; Heliothis virescens, 96 h, single compound at 100 ppm AI, read-out: AVERAGE DEAD IN %): 100%
pest or weed control at 200 ppm ([2]; Heliothis virescens, 96 h, single compound at 200 ppm AI, read-out: AVERAGE DEAD IN %): 100%
pest or weed control at 400 ppm ([2]; Heliothis virescens, 96 h, single compound at 400 ppm AI, read-out: AVERAGE DEAD IN %): 100%
pest or weed control at 800 ppm ([2]; Heliothis virescens, 96 h, single compound at 800 ppm AI, read-out: AVERAGE DEAD IN %): 100%
AVERAGE DEAD IN % AFTER 5 DAYS ([3]; 12.5 PPM AI): 10% and 7%
AVERAGE DEAD IN % AFTER 5 DAYS ([3]; 25 PPM AI): 17% and 10%
AVERAGE DEAD IN % AFTER 5 DAYS ([3]; 50 PPM AI): 30% and 20%
AVERAGE DEAD IN % AFTER 8 DAYS ([4]; 50 ppm alone): 0%
AVERAGE DEAD IN % AFTER 8 DAYS ([4]; 100 ppm alone): 20%
AVERAGE DEAD IN % AFTER 8 DAYS ([4]; 200 ppm alone): 63%
AVERAGE DEAD IN % AFTER 1 DAY ([4]; Chlorpyrifos alone 50 ppm AI): 0%
AVERAGE DEAD IN % AFTER 1 DAY ([4]; Chlorpyrifos alone 100 ppm AI): 60%
AVERAGE DEAD IN % AFTER 1 DAY ([4]; Chlorpyrifos alone 200 ppm AI): 88%
